Measurements taken from patent US6214876A, “Indene-1-acetamide sPLA2 inhibitors” (Eli Lilly and Company, priority 1994, dated 2001).

Target: T1, recombinant human secreted phospholipase A2 (Homo sapiens, UniProt P14555)
T1 sequence (P14555 21-144): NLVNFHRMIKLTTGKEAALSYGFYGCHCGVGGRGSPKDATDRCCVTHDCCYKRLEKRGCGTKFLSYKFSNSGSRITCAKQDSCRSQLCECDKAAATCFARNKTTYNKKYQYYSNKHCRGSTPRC
Assay: PLA2 Chromogenic Assay (human secreted phospholipase A2 inhibition)
Type: biochemical
Conditions: racemic diheptanoyl thio-PC 1 mM, pH 7.5, 40° C., 30 minutes, 405 nanometers, triplicate, read-out: Compound IC50
Text: The following chromogenic assay procedure was used to identify and evaluate inhibitors of recombinant human secreted phospholipase A2. The assay described herein has been adapted for high volume screening using 96 well microtiter plates. A general description of this assay method is found in the article, "Analysis of Human Synovial Fluid Phospholipase A2 on Short Chain Phosphatidylcholine-Mixed Micelles: Development of a Spectrophotometric Assay Suitable for a Microtiterplate Reader", by Laure J. Reynolds, Lori L. Hughes, and Edward A Dennis, Analytical Biochemistry,204, pp. 190-197, 1992 (the disclosure of which is incorporated herein by reference): […]
A measured volume of racemic dipheptanoyl thio PC supplied in chloroform at a concentration of 100 mg/ml is taken to dryness and redissolved in 10 millimolar TRITON X-100™ nonionic detergent aqueous solution. […]
5. Read absorbance of wells at 405 nanometers with an automatic plate reader.
All compounds were tested in triplicate. […] Compounds initially found to be active were reassayed to confirm their activity and, if sufficiently active, IC50 values were determined. […] In all cases, % inhibition measured at 405 nanometers generated by enzyme reactions containing inhibitors relative to the uninhibited control reactions was determined. […] IC50 were determined by plotting log concentration versus inhibition values in the range from 10-90% inhibition.

Row | IC50 [nM] | Structure (SMILES)
1 | 420 | CC1=C(CC(N)=O)c2c(OCC(=O)O)cccc2/C1=C\c1ccccc1 [Compound 14b, [3(z)-benzylidene-1-carbamoylmethyl-2-methyl-3H-inden-7-yloxy]-acetic acid]
2 | 910 | CC1=C(CC(N)=O)c2cc(OCCCC(=O)O)ccc2/C1=C\c1ccccc1 [Compound 14a, 4-[3(z)-benzylidene-1-carbamoylmethyl-2-methyl-3H-inden-6-yloxy]-butanoic acid]
